Data on 13 molecules can be found in US11180474B2 (BRISTOL-MYERS SQUIBB COMPANY, priority 2016, dated 2021).

The assay concerns the target T1, human TLR8 (Homo sapiens, UniProt Q9NR97).
T1 construct: host or cells: HEK-Blue cells
T1 sequence (Q9NR97 27-1041): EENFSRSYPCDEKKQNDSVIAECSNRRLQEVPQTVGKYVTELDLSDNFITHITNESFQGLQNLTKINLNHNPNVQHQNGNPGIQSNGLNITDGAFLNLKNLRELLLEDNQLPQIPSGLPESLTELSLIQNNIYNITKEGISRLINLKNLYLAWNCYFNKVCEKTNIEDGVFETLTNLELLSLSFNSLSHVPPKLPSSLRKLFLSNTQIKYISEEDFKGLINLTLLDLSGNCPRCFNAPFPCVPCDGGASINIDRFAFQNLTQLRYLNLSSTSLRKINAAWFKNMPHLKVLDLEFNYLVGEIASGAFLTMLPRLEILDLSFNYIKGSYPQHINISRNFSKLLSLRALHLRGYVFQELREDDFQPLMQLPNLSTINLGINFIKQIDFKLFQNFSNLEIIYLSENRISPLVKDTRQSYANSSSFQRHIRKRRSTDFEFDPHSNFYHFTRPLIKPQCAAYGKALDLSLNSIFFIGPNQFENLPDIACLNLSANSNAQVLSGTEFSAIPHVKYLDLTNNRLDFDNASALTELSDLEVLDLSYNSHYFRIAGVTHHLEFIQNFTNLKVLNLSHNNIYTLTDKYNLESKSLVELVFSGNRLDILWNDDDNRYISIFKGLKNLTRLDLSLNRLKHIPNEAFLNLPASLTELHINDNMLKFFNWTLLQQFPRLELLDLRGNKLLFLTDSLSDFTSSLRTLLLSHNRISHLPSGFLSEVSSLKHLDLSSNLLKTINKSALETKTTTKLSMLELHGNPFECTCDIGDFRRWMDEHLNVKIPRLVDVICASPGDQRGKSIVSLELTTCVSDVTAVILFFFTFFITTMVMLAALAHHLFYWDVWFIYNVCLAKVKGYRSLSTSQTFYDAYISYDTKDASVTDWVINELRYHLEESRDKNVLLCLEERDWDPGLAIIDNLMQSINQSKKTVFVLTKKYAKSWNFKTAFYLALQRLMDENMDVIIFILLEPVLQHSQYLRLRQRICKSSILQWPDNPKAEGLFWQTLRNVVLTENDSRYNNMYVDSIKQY
Put plainly: TLR8 inhibition reporter assay (HEK-Blue cells, SEAP reporter, R848 stimulation). The format is cell-based. Conditions: HEK-Blue cells overexpressing human TLR8, R848 15.9 μM. A digest of the protocol: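 22 h, 37° C, 5% CO2 incubation; compounds 0.05 nM-50 μM final; TLR7 cells 15000/well, TLR8 20,000/well. Readout: SEAP via HEK-Blue Detection medium. % inhibition = signal reduction versus agonist + DMSO wells, referenced to known inhibitor.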
The molecule `COc1ccc(-c2[nH]c3ccc(C4CCN(C5CCN(C6CCC(O)CC6)CC5)CC4)cc3c2C)cc1OC` (stereo not shown) [Example 84, 4-(4-(2-(3,4-dimethoxyphenyl)-3-methyl-1H-indol-5-yl)-[1,4′-bipiperidin]-1′-yl)cyclohexan-1-ol] had an IC50 of 143 nM.
The figure for `COc1ccc(-c2[nH]c3ccc(C4CCN(C5CC(C)(C)NC(C)(C)C5)CC4)cc3c2C)cc1OC` [Example 48, 2-(3,4-dimethoxyphenyl)-3-methyl-5-(2′,2′,6′,6′-tetramethyl-[1,4′-bipiperidin]-4-yl)-1H-indole] is 616 nM; for `CCN1CCCC(N2CCC(c3ccc4[nH]c(-c5ccc(OC)c(OC)c5)c(C)c4c3)CC2)CC1` (stereo not shown) [Example 97, 2-(3,4-dimethoxyphenyl)-5-(1-(1-ethylazepan-4-yl)piperidin-4-yl)-3-methyl-1H-indole] it is 196 nM.
With `CCN(CC)C(=O)C1CCCN(CC(=O)N2CCC(c3ccc4[nH]c(-c5ccc(OC)c(OC)c5)c(CC(F)(F)F)c4c3)CC2)C1` (stereo not shown) [Example 421, 1-(2-(4-(2-(3,4-dimethoxyphenyl)-3-(2,2,2-trifluoroethyl)-1H-indol-5-yl)piperidin-1-yl)-2-oxoethyl)-N,N-diethylpiperidine-3-carboxamide], the IC50 was 71 nM.
For the molecule `COc1ccc(-c2[nH]c3ccc(C4CCN(C5CCN(C6CCCC6)CC5)CC4)cc3c2C)cc1OC` [Example 62, 5-(1′-cyclopentyl-[1,4′-bipiperidin]-4-yl)-2-(3,4-dimethoxyphenyl)-3-methyl-1H-indole], inhibition was half-maximal at 217 nM (IC50).
Take `CNCCN1CCC(c2ccc3[nH]c(-c4ccc(OC)c(OC)c4)c(CC(F)(F)F)c3c2)CC1` [Example 413, 2-(4-(2-(3,4-dimethoxyphenyl)-3-(2,2,2-trifluoroethyl)-1H-indol-5-yl)piperidin-1-yl)-N-methylethanamine]: the IC50 came to 28 nM.
The figure for `COc1ccc(-c2[nH]c3ccc(C4CCN(C5CCN(CCC(F)(F)F)CC5)CC4)cc3c2C)cc1OC` [Example 50, 2-(3,4-dimethoxyphenyl)-3-methyl-5-(1′-(3,3,3-trifluoropropyl)-[1,4′-bipiperidin]-4-yl)-1H-indole] is 510 nM; for `COc1ccc(-c2[nH]c3ccc(C4CCN(C(=O)CNCCC(C)O)CC4)cc3c2C)cc1OC` (stereo not shown) [Example 406, 1-(4-(2-(3,4-dimethoxyphenyl)-3-methyl-1H-indol-5-yl)piperidin-1-yl)-2-((3-hydroxybutyl)amino)ethan-1-one] it is 2050 nM; for `COc1ccc(-c2[nH]c3ccc(C4CCN(C5CCCN(C6CCCC6)CC5)CC4)cc3c2C)cc1OC` (stereo not shown) [Example 93, 5-(1-(1-cyclopentylazepan-4-yl)piperidin-4-yl)-2-(3,4-dimethoxyphenyl)-3-methyl-1H-indole] it is 302 nM.
Molecule `COc1ccc(-c2[nH]c3ccc(C4CCN(C5CCN(CC6CCOC6)CC5)CC4)cc3c2C)cc1OC` (stereo not shown) [Example 74] gave an IC50 of 102 nM.
Turning to `COc1ccc(-c2[nH]c3ccc(C4CCN(C5CCN(CC6CCCCC6)CC5)CC4)cc3c2C)cc1OC` [Example 58, 5-(1′-(cyclohexylmethyl)-[1,4′-bipiperidin]-4-yl)-2-(3,4-dimethoxyphenyl)-3-methyl-1H-indole], the concentration for half-maximal inhibition (IC50) amounted to 258 nM.
In the case of `COc1ccc(-c2[nH]c3ccc(C4CCN(C5CCN(Cc6cccs6)CC5)CC4)cc3c2C)cc1OC` [Example 64, 2-(3,4-dimethoxyphenyl)-3-methyl-5-(1′-(thiophen-2-ylmethyl)-[1,4′-bipiperidin]-4-yl)-1H-indole] it was 195 nM; in that of `COc1ccc(-c2[nH]c3ccc(C4CCN(C(=O)CN5CCN(C)CC5)CC4)cc3c2C)cc1OC` [Example 409, 1-(4-(2-(3,4-dimethoxyphenyl)-3-methyl-1H-indol-5-yl)piperidin-1-yl)-2-(4-methylpiperazin-1-yl)ethan-1-one], 11200 nM.
